Source: patent US7070917B1, “Determination of sperm concentration and viability for artificial insemination” (priority 2000, dated 2006)

How the values were obtained:
sperm cells = test: Toxicity of SYBR-14 staining to sperm cells (decrease in live sperm cells over time); format: cell-based
bull sperm = test: Flow cytometric (FACSCount) determination of sperm viability over staining time in bull ejaculates; format: cell-based; details: FACSCount blue laser (488 nm); SYBR-14 50 nM with PI 12 μM; replicates at 4 and 6 min staining, room temperature
Description: A two-step dilution is necessary for the flow cytometric analyses. First, the sample is diluted 250× in a PBS medium containing 0.1% BSA, (NUNC Intermed Cat# 3478880, Lifetechnologies, Roskilde, Denmark), and second a 20 μl sample is transferred to a Sperm Count tube containing approximately 100,000 beads using reverse manual pipetting. The dyes were added to the Sperm Count tubes less than 12 hours before using the tubes in the analysing procedure. As mentioned above, two different flow cytometers were used, one being a FACSCount equipped with a green (543 nm) laser and the second being a FACSCount equipped with a blue (488 nm) laser.
To each Sperm Count tube to be analysed in the first FACSCount (543 nm), 2 μl of MPR71292 and 2 μl of EHD-2 were added to provide final concentrations of 100 nM and 5 μM, respectively.
To each Sperm Count tube to be analysed in the second FACSCount (488 nm), 5 μl of SYBR-14 and 5 μl of PI were added to provide for final concentrations of 50 nM and 12 μM, respectively.
Prior to opening the Sperm Count tubes, the tubes were whirlmixed for 3 sec in an upside-down position and for 3 sec in a normal position. Whirlmixing were repeated for two sec after addition of the sperm and before each analysis. […] After 4 min, the first replicates were analysed simultaneously on the two flow cytometers and the second replicates were analysed after a 6 min staining period. […]

For SYBR-14, which “decrease in the amount of live sperm cells” value (sperm cells; SYBR-14 below standard concentrations (25 to 75 nanomolar, about 50 nanomolar)) is on record?
Its value is “no decrease”.

And the “decrease in the amount of live sperm cells” value (sperm cells; SYBR-14 concentration of 100 nM)?
The value was 0.6 % pr minute.

What about the toxicity to spermatozoa (sperm cells; standard concentrations (100 nM), staining time 10 to 15 minutes) of the same substance?
Its toxicity to spermatozoa is “slightly toxic”.

What about the “decrease in sperm viability over time” value (bull sperm) of the same substance?
Its value is −0.15±0.07 %/min.
